Where two headings read alike, the source gives them in different places.
Columns and labels:
CMK [1] = test: Secondary dose-response HTS, Cell Titer Glo; type: cell-based, human; settings: Homo sapiens, CMK
MOLM-13 [2] = test: cells; parameters: species or system AML cell lines (8); Secondary HTS, 10-point dose-response in triplicate, Cell Titer Glo viability, four-parameter fit EC50; settings: Homo sapiens; 72 h cell viability; read-out: MOLM-13
MV4-11 [3] = test: cells; parameters: species or system AML cell lines (8); settings: Homo sapiens, MV4-11, 72 h, read-out: MV4-11
CHRF288-11 [4] = test: cells; parameters: species or system AML cell lines (8); settings: 72 h, read-out: CHRF288-11
CMS [5] = test: cells; parameters: species or system AML cell lines (8); settings: 72 h, read-out: CMS
M07e [6] = test: cells; parameters: species or system AML cell lines (8); settings: M-07e, 72 h, read-out: M07e
ML-2 = test: cells; parameters: species or system AML cell lines (8); settings: Homo sapiens, ML-2, 72 h, read-out: ML-2
U937 [7] = test: cells; parameters: species or system AML cell lines (8); settings: Homo sapiens, U-937, 72 h, read-out: U937
CMK [8] = test: cells; parameters: species or system AML cell lines (8); settings: Homo sapiens, 72 h, read-out: CMK
MOLM-13 [9] = test: Secondary dose-response HTS, Cell Titer Glo; type: cell-based, human; settings: Homo sapiens, MOLM-13
MV4-11 [10] = test: Secondary dose-response HTS, Cell Titer Glo; type: cell-based, human; settings: Homo sapiens, MV4-11
CMS [11] = test: Secondary dose-response HTS, Cell Titer Glo; type: cell-based, human; settings: Homo sapiens, HTS
U937 [12] = test: Secondary dose-response HTS, Cell Titer Glo; type: cell-based, human; settings: Homo sapiens, U-937
[13] = test system: MLLr primary AML blast samples; test: Ex vivo drug treatment of primary AML blasts on mesenchymal stromal cells; type: cell-based; settings: Homo sapiens; primary blasts on MSC, 96 h, range over patient samples
CHRF288-11 [14] = test: Secondary dose-response HTS, Cell Titer Glo; type: cell-based, human; settings: Homo sapiens
M07e [15] = test: Secondary dose-response HTS, Cell Titer Glo; type: cell-based, human; settings: Homo sapiens, M-07e
ML2 = test: Secondary dose-response HTS, Cell Titer Glo; type: cell-based, human; settings: Homo sapiens, ML-2
[16] = test system: AMKL primary AML blast samples; test: Ex vivo drug treatment of primary AML blasts on mesenchymal stromal cells; type: cell-based; settings: Homo sapiens; primary blasts on MSC, 96 h
[17] = secondary high-throughput screen, read-out: average effective concentration, CMK
[18] = secondary high-throughput screen, read-out: average effective concentration, MOLM-13
[19] = secondary high-throughput screen, read-out: average effective concentration, MV4-11
[20] = secondary high-throughput screen, CMS, read-out: average effective concentration, CMS
[21] = secondary high-throughput screen, U937, read-out: average effective concentration, U937
[22] = secondary high-throughput screen, M07e, read-out: average effective concentration, M07e
[23] = secondary high-throughput screen, read-out: average effective concentration, ML-2

Cc1c(CN2CCN(C(=O)[C@H](C)O)CC2)sc2c(N3CCOCC3)nc(-c3cnc(N)nc3)nc12 [GDC-0980]
EC50 (CMK [1]; [17]): 520 nM | EC50 (MOLM-13 [2]): > 10000 nM | EC50 (MV4-11 [3]): > 10000 nM | EC50 (CHRF288-11 [4]): > 10000 nM | EC50 (CMS [5]): > 10000 nM | EC50 (M07e [6]): > 10000 nM | EC50 (ML-2): > 10000 nM | EC50 (U937 [7]): > 10000 nM

O=P1(NCCCl)OCCCN1CCCl (stereo not shown) [IFOSFAMIDE]
EC50 (MOLM-13 [2]): > 10000 nM | EC50 (MV4-11 [3]): > 10000 nM | EC50 (CHRF288-11 [4]): > 10000 nM | EC50 (CMK [8]): > 10000 nM | EC50 (CMS [5]): > 10000 nM | EC50 (M07e [6]): > 10000 nM | EC50 (ML-2): > 10000 nM | EC50 (U937 [7]): > 10000 nM

C=CC(=O)N1CCC[C@@H](n2nc(-c3ccc(Oc4ccccc4)cc3)c3c(N)ncnc32)C1 [Ibrutinib, reference compound]
EC50 (MOLM-13 [9]; [18]): 6700 nM | EC50 (MV4-11 [10]; [19]): 10000 nM | EC50 (CMK [1]; [17]): > 10000 nM | EC50 (CMS [11]; [20]): > 10000 nM | EC50 (U937 [12]; [21]): 10000 nM | IC50 [13]: > 20000 nM

Cc1oncc1C(=O)Nc1ccc(C(F)(F)F)cc1 [LEFLUNOMIDE]
EC50 (MOLM-13 [2]): > 10000 nM | EC50 (MV4-11 [3]): > 10000 nM | EC50 (CHRF288-11 [4]): > 10000 nM | EC50 (CMK [8]): > 10000 nM | EC50 (CMS [5]): > 10000 nM | EC50 (M07e [6]): > 10000 nM | EC50 (ML-2): > 10000 nM | EC50 (U937 [7]): > 10000 nM

CCc1ccc(CCOc2ccc(CC3SC(=O)NC3=O)cc2)nc1 (stereo not shown) [PIOGLITAZONE]
EC50 (MOLM-13 [2]): > 10000 nM | EC50 (MV4-11 [3]): > 10000 nM | EC50 (CHRF288-11 [4]): > 10000 nM | EC50 (CMK [8]): > 10000 nM | EC50 (CMS [5]): > 10000 nM | EC50 (M07e [6]): > 10000 nM | EC50 (ML-2): > 10000 nM | EC50 (U937 [7]): > 10000 nM

Cc1[nH]c2ccccc2c1CCNCc1ccc(/C=C/C(=O)NO)cc1 [Panobinostat, reference compound]
EC50 (MOLM-13 [9]; secondary HTS, 72 h, average of triplicate, read-out: EC50 MOLM-13): 180 nM | EC50 (MV4-11 [10]; secondary HTS, 72 h, average of triplicate, read-out: EC50 MV4-11): 130 nM | EC50 (CHRF288-11 [14]; secondary HTS, 72 h, average of triplicate, read-out: EC50 CHRF288-11): 10 nM | EC50 (CMK [1]; 72 h, read-out: EC50 CMK): 3 nM | EC50 (CMK [1]; read-out: average effective concentration, CMK): 2.85 nM | EC50 (CMS [11]; 72 h, read-out: EC50 CMS): 30 nM | EC50 (CMS [11]; read-out: average effective concentration, CMS): 28 nM | EC50 (M07e [15]; secondary HTS, 72 h, average of triplicate, read-out: EC50 M07e): 5 nM | EC50 (M07e [15]; [22]): 4.64 nM | EC50 (ML2; secondary HTS, 72 h, average of triplicate, read-out: EC50 ML2): 10 nM | EC50 (ML2; [23]): 12 nM | EC50 (U937 [12]; secondary HTS, 72 h, average of triplicate, read-out: EC50 U937): 10 nM | IC50 [13]: 0.9 to 3.3 nM | IC50 [16]: 14 nM

C[C@@H]1C[C@H]2O[C@@H]2/C=C\C=C\C(=O)Cc2c(Cl)c(O)cc(O)c2C(=O)O1 [RADICICOL]
EC50 (MOLM-13 [9]; [18]): 27 nM | EC50 (MV4-11 [10]; [19]): 21 nM | EC50 (CHRF288-11 [14]; HTS, secondary high-throughput screen, CHRF288-11, read-out: average effective concentration, CHRF288-11): 92 nM | EC50 (CMK [1]; [17]): 66 nM | EC50 (CMS [11]; [20]): 110 nM | EC50 (ML2; [23]): 61 nM | EC50 (U937 [12]; [21]): 15 nM | EC50 (M07e [6]): > 10000 nM

NC(=O)c1ncn([C@@H]2O[C@H](CO)[C@@H](O)[C@H]2O)n1 [RIBAVIRIN]
EC50 (M07e [15]; [22]): 9300 nM | EC50 (MOLM-13 [2]): > 10000 nM | EC50 (MV4-11 [3]): > 10000 nM | EC50 (CHRF288-11 [4]): > 10000 nM | EC50 (CMK [8]): > 10000 nM | EC50 (CMS [5]): > 10000 nM | EC50 (ML-2): > 10000 nM | EC50 (U937 [7]): > 10000 nM

CC(C)[C@]12O[C@H]1[C@@H]1O[C@]13[C@]1(O[C@H]1C[C@H]1C4=C(CC[C@@]13C)C(=O)OC4)[C@@H]2O [TRIPTOLIDE]
EC50 (MOLM-13 [9]; [18]): 120 nM | EC50 (MV4-11 [10]; [19]): 230 nM | EC50 (CMK [1]; [17]): 10 nM | EC50 (CMS [11]; [20]): 70 nM | EC50 (M07e [15]; [22]): 10 nM | EC50 (ML2; [23]): 61 nM | EC50 (U937 [12]; [21]): 100 nM | EC50 (CHRF288-11 [4]): > 10000 nM

— article PMC6522510 (Nature Communications, 2019)
